Test results taken from patent US7960543B2, “Nucleoside or nucleotide derivative and use thereof” (RIKEN, priority 2004, dated 2011).
Where “and” joins values, the source holds several entries; their conditions need not be identical. Equal entries are not always repeated. Where two headings read alike, the source gives them in different places.

Key:
[1] = for Emission maxima: excited at the wavelength printed in the cell (493, 553 or 320 nm), pH 7.0, 25° C.; for Quantum yield: pH 7.0 aqueous solution, standard fluorescein in 0.1 N NaOH, φs=0.90
Description: A 3×3 mm cell was used for measurement, and the following settings were used to measure each spectrum: response 1.0 s, sensitivity low, and slit width fixed at 3 nm for both excitation and fluorescence sides.
The quantum yield (φ) was calculated according to the following equation and fluorescein (1.0 μM in 0.1 N NaOH, φs=0.90) was used as a standard. φ=(F·As·η^2·φs)/(A·Fs·η0^2)
F: Area of each fluorescence spectrum
A: Absorbance at the excitation wavelength
η: Refractive index (water: 1.33)

T7 RNA polymerase [2] = biological target: T1, T7 RNA polymerase (Escherichia phage T7, UniProt P00573); conditions: compared to transcription using the natural template and substrates only; 1 mM modified yTP, 37° C., 3 hours
Description: More specifically, double-stranded template DNA (10 μM) was annealed in 10 mM Tris-HCl buffer (pH 7.6) containing 10 mM NaCl under the following conditions: 95° C. for 3 minutes→50° C. for 3 minutes→slow cooling to 4° C. T7 transcription reaction was accomplished in a reaction solution (20 μl) containing 40 mM Tris-HCl buffer (pH 8.0), 24 mM MgCl2, 2 mM spermidine, 5 mM DTT, 0.01% Triton X-100, 2 μCi [y-^32P]GTP, 1 mM NTPs, 1 mM modified yTP, 2 μM template DNA, and 50 units of T7 RNA polymerase (Takara).
The template DNA used was a duplex formed between T7 promoter-containing 35-mer template strand and T7 promoter non-template strand 21-mer, which has been modified to have s or v introduced at a single position within the template.
where N(5)=v (the present invention), s (the present invention) or A (control)
where N′(13)=NH2-y, FAM-y or TAMRA-y
The modified substrate was added in the same amount as the natural substrates and reacted at 37° C. for 3 hours, followed by addition of an electrophoresis dye solution (20 μl) containing 10 M urea to stop the reaction. The reaction solution was heated at 75° C. for 3 minutes and then electrophoresed on a 20% polyacrylamide-7 M urea gel. The transcripts were analyzed with a bio-imaging analyzer.

T7 RNA polymerase [3] = biological target: T1, T7 RNA polymerase; conditions: RNA 17-mer transcript, RNase T2 digest, [α-32P]ATP
Description: The same T7 RNA polymerase-mediated transcription reaction as shown in Example 11 was performed in a reaction solution containing 40 mM Tris-HCl buffer (pH 8.0), 24 mM MgCl2, 2 mM spermidine, 5 mM DTT, 0.01% Triton X-100, 2 μCi [α-^32P]ATP, 1 mM NTPs, 1 mM modified-yTP, 2 μM template DNA, and 50 units of T7 RNA polymerase (Takara). After electrophoresis on a 15% polyacrylamide-7 M urea gel, the transcript was eluted from the gel and collected by ethanol precipitation in the presence of tRNA (0.25 OD).
To this tRNA-containing solution (8.5 μl), RNase T2 (1.5 μl, 1 unit/μl) was added and reacted overnight at 37° C. 0.3 μl of this solution was spotted on a TLC plate (Merck, 10 cm×10 cm) and developed two-dimensionally. As a developing solution, isobutyric acid:concentrated aqueous ammonia:water=66:1:33 (v/v/v) was used for the first dimension and 2-propanol:hydrochloric acid:water=65:10:25 (v/v/v) was used for the second dimension. The developed spots were detected and analyzed with a bio-imaging analyzer.

[4] = 1.0 μM in 10 mM sodium phosphate buffer (pH 7.0), 25° C.

T1 sequence (P00573 whole entry): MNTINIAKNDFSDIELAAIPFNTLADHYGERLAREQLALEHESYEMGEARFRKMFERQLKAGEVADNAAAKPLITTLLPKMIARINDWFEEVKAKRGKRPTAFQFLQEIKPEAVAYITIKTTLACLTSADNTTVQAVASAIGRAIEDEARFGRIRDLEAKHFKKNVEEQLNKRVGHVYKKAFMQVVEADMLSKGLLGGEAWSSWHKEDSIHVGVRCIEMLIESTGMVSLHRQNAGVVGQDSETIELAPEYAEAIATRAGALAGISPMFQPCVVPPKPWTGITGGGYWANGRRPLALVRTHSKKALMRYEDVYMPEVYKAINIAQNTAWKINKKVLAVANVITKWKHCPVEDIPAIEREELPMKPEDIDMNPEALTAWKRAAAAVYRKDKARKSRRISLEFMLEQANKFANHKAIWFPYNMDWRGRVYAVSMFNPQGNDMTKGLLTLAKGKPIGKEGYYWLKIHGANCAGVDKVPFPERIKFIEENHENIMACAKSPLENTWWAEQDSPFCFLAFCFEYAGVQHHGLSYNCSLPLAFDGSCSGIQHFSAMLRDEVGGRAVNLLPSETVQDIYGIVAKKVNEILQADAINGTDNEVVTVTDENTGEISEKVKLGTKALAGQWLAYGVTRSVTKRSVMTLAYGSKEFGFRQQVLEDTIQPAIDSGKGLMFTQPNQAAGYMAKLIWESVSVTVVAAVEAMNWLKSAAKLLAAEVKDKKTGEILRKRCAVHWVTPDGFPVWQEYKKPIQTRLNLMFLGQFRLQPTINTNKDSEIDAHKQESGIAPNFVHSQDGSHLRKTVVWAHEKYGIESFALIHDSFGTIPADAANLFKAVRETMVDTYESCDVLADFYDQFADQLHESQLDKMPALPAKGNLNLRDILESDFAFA

| Absorption maxima [1, 4] | Emission maxima [1] | Compound | Quantum yield [1] | ε at absorption maximum [1, 4] | yield of RNA incorporating the modified substrate (T7 RNA polymerase [2]) | incorporation opposite v in the template (T7 RNA polymerase [3]) | Absorption maxima ([1]; pH 7) | ε at absorption maximum ([1]; pH 7) |
| --- | --- | --- | --- | --- | --- | --- | --- | --- |
| 319 nm and 252 nm | 387 nm and 541 nm | CN(C)c1cccc2c(S(=O)(=O)NCCCCCC(=O)NCCCCCC(=O)NCC#Cc3c[nH]c(=O)c([C@@H]4O[C@H](COP(=O)(O)OP(=O)(O)OP(=O)(O)O)[C@@H](O)[C@H]4O)c3)cccc12 [Dansyl-x-yTP, 3-(β-D-ribofuranosyl)-5-[3-[6-[6-[(5-dimethylaminonaphthalene-1-sulfonyl)amino]hexanamido]hexanamido]-1-propynyl]-2-oxo(1H)pyridine 5′-triphosphate] | 0.014 | – | – | – | – | – |
| – | – | NCCCCCC(=O)NCC#Cc1c[nH]c(=O)c([C@@H]2O[C@H](COP(=O)(O)OP(=O)(O)OP(=O)(O)O)[C@@H](O)[C@H]2O)c1 [NH2-yTP, 3-(β-D-ribofuranosyl)-5-[3-(6-aminohexanamido)-1-propynyl]-2-oxo(1H)pyridine 5′-triphosphate] | – | – | same yield | specific incorporation | – | – |
| – | – | CN(C)c1ccc2c(-c3cc(C(=O)NCCCCCC(=O)NCC#Cc4c[nH]c(=O)c([C@@H]5O[C@H](COP(=O)(O)OP(=O)(O)OP(=O)(O)O)[C@@H](O)[C@H]5O)c4)ccc3C(=O)[O-])c3ccc(N(C)C)cc3[o+]c2c1 [TAMRA-yTP, 3-(β-D-ribofuranosyl)-5-[3-[6-(tetramethylrhodamine-5-carboxamido)hexanamido]-1-propynyl]-2-oxo(1H)pyridine 5′-triphosphate] | 0.50 | – | 61% | – | 553 nm and 553 (ε 85,000) nm | 553 (ε 85,000) |
| 493 nm | 521 (excited at 493 nm) | O=C(NCC#Cc1c[nH]c(=O)c([C@@H]2O[C@H](COP(=O)(O)OP(=O)(O)OP(=O)(O)O)[C@@H](O)[C@H]2O)c1)c1ccc2c(c1)C(=O)OC21c2ccc(O)cc2Oc2cc(O)ccc21 [short FAM-yTP, 3-(β-D-ribofuranosyl)-5-[3-(fluorescein-5-carboxamido)-1-propynyl]-2-oxo(1H)pyridine 5′-triphosphate] | 0.67 | 70,000 | – | – | – | – |

| Compound | Absorption maxima [1, 4] | Emission maxima [1] | Quantum yield [1] | ε at absorption maximum [1, 4] | yield of RNA incorporating the modified substrate (T7 RNA polymerase [2]) | incorporation opposite v in the template (T7 RNA polymerase [3]) | Absorption maxima ([1]; pH 7) | ε at absorption maximum ([1]; pH 7) |
| --- | --- | --- | --- | --- | --- | --- | --- | --- |
| O=C(CCCCCNC(=O)c1ccc2c(c1)C(=O)OC21c2ccc(O)cc2Oc2cc(O)ccc21)NCC#Cc1c[nH]c(=O)c([C@@H]2O[C@H](COP(=O)(O)OP(=O)(O)OP(=O)(O)O)[C@@H](O)[C@H]2O)c1 [FAM-yTP, 3-(β-D-ribofuranosyl)-5-[3-[6-(fluorescein-5-carboxamido)hexanamido]-1-propynyl]-2-oxo(1H)pyridine 5′-triphosphate] | 493 nm | – | 0.55 | 62,000 | 76% | – | – | – |
